Results on four compounds are retold here after US8252507B2, “Photoactive compound and photosensitive resin composition comprising the same” (LG Chem, Ltd., priority 2008, dated 2012).

Each structure is given as a SMILES string.

This data set is described as follows: Solubility measurement in organic solvents. It is filed as physicochemical. Conditions: for Solubility in 3-MBA: amount (g) of compound completely dissolved in 3-methoxybutyl acetate; for Solubility in CH: amount (g) of compound completely dissolved in cyclohexanone; for Solubility in DPM: amount (g) of compound completely dissolved in dipropylene glycol methyl ether; for Solubility in EEP: amount (g) of compound completely dissolved in ethyl-3-ethoxy propionate; for Solubility in PGMEA: amount (g) of compound completely dissolved in propylene glycol methyl ether acetate. Here is the method:
The solubilities of Irgacure OXE-02 (Ciba Specialty Chemical) of Comparative Example 1, the compounds of Comparative Examples 2-3, and the compound of Example 1, which contains oxime ester moieties, were measured in various solvents, including propylene glycol methyl ether acetate (PGMEA), dipropylene glycol methyl ether (DPM), 3-methoxybutyl acetate (MBA), ethyl-3-ethoxy propionate (EEP) and cyclohexanone (CH). The solubility of each of the compounds was determined by measuring the amount (g) of the compound completely dissolved in the corresponding solvent.

Take `CCn1c2ccc(C(=O)c3ccccc3C)cc2c2cc(/C(C)=N/OC(C)=O)ccc21` [Comparative Example 1]: the “Solubility in 3-MBA” value came out at 10 g, the “Solubility in CH” value amounted to 40 g, the “Solubility in DPM” value was 5 g and the “Solubility in EEP” value amounted to 10 g. Moreover, the “Solubility in PGMEA” value amounted to 12 g.
Regarding `CC(=O)O/N=C/c1ccc(-c2ccc(-c3nc(C(Cl)(Cl)Cl)nc(C(Cl)(Cl)Cl)n3)cc2)cc1` [Comparative Example 3, 2,4-trichloromethyl-(4′-formylbiphenylacetoxime)-6-triazine], the “Solubility in 3-MBA” value is on record as 5 g, the “Solubility in CH” value was determined as 20 g, the “Solubility in DPM” value stood at 2 g and the “Solubility in EEP” value is recorded as 5 g. Further, the “Solubility in PGMEA” value is 7 g.
As for `CC(=O)O/N=C(\C)c1ccc(-c2nc(C(Cl)(Cl)Cl)nc(C(Cl)(Cl)Cl)n2)cc1` [Comparative Example 2, 2,4-trichloromethyl-(4′-acetylphenylacetoxime)-6-triazine], the “Solubility in 3-MBA” value is given as 5 g, the “Solubility in CH” value was determined as 25 g, the “Solubility in DPM” value was determined as 3 g and the “Solubility in EEP” value is on record as 6 g. Further, the “Solubility in PGMEA” value is reported as 7 g.
Regarding `CCn1c2ccc(C(=O)c3ccc(OCC4COC(C)(C)O4)cc3)cc2c2cc(/C(CC(c3ccccc3)N(OC(C)=O)C(C)=O)=N/OC(C)=O)ccc21` (centres unmarked) [Example 1], the “Solubility in 3-MBA” value is listed as 13 g, the “Solubility in CH” value came to 60 g, the “Solubility in DPM” value was determined as 7 g and the “Solubility in EEP” value was determined as 15 g. Also, the “Solubility in PGMEA” value is on record as 20 g.
